# Results as given in ChEMBL document CHEMBL5726472, “Oxazolidin-2-one-pyrimidine derivatives and the use thereof as phosphatidylinositol-3-kinase inhibitors” (2019).
# Legend:
# [1] = (§1) AlphaScreen (Amplified Luminescent Proximity Homogeneous Assay, ALPHA, Perkin Elmer) is a non-radioactive bead-based proximity assay technology to study biomolecular interactions in a homogenous microtiter plate format. The brand name SureFire denotes AlphaScreen assays that are adapted to quantify the phosphorylation of endogenous cellular proteins in cell lysates, by using matched antibody pairs, which consist of an anti-phospho-kinase and an anti-kinase antibody. The assay allows characterization of kinase signaling in cells as well as measurement of kinase inhibitor effects. The AlphaScreen technology provides several advantages over standard assay techniques such as ELISA, as it avoids time-consuming washing procedures and reduces plate handling. Furthermore, it is miniaturizable at least to a 384-well format and provides sensitivity down to the femtomolar range, dependent on the affinity of the antibodies included in the individual AlphaScreen SureFire assay kit. High sensitivity is reached by an intrinsic amplification mechanism, which involves production of singlet oxygen molecules. SureFire assay kits are commercially available for specific targets and include pairs of validated antibodies (PerkinElmer). This report describes common procedures applied for AlphaScreen SureFire assays and respective semi-automated steps for routine kinase inhibitor profiling in cell-based assays.The Rat-1 cell lines stably overexpressing activated PI3K class I isoforms Rat-1 pBABEpuro Myr-HA-hp110 delta (Rat-1_PI3Kdelta) and Rat-1 pBABEpuro Myr-HA-hp110alpha (Rat-1_PI3Kalpha) and Rat-1 pBABEpuro Myr-HA-hp110 beta (Rat-1_PI3beta) were prepared as described (Maira S M, Stauffer F, Brueggen J, Furet P, Schnell C, Fritsch C, Brachmann S, Chène P, de Pover A, Schoemaker K, Fabbro D, Gabriel D, Simonen M, Murphy L, Finan P, Sellers W, Garcia-Echeverria C (2008), Mol Cancer Ther. 7:1851-63 and Maira S M, Pecchi S, Brueggen J, Huh K, Schnell C, Fritsch C, Nagel T, Wiesmann M, Brachmann S, Dorsch M, Chène P, Schoemaker K, De Pover A, Menezes D, Fabbro D, Sellers W, Garcia-Echeverria C, Voliva CF (2011), Mol. Cancer Ther., accepted). All cell lines were cultivated in complete growth medium (DMEM high glucose, 10% (v/v) fetal bovine serum, 1% (v/v) MEM NEAA, 10 mM HEPES, 2 mM L-glutamine, puromycin (10 μg/mL for Rat-1_PI3Kdelta and Rat-1_PI3Kalpha, 4 ug/mL for Rat-1_PI3beta), 1% (v/v) Pen/Strep) to 90% confluency at 37° C./5% CO2/90% humidity in a humidified CO2 incubator and were split twice a week.The following materials were used for p-AKT(5473) detection in Rat-1 cell lysates: Dulbecco's modified Eagle's medium (DMEM) high glucose (Gibco Invitrogen, Basel, Switzerland, Cat. No. 41965), Heat Inactivated Fetal Bovine Serum, Qualified (HI FBS; Gibco Invitrogen, Basel, Switzerland, Lot. No. 16140), MEM non essential amino acids (NEAA; Gibco Invitrogen, Basel, Switzerland, Cat. No. 11140), HEPES (Gibco Invitrogen, Basel, Switzerland, Cat. No. 15630), Penicillin/Streptomycin (Pen/Strep, 100x; Gibco Invitrogen, Basel, Switzerland, Cat. No. 15140-122), L-Glutamine (Gibco Invitrogen, Basel, Switzerland, Cat. No. 25030), Puromycin (Sigma Aldrich, Buchs, Switzerland, Cat. No. P9620), DMSO (MERCK, Dietikon, Switzerland, Cat. No. 8.02912.2500), H2O, MilliQ-H2O unless otherwise stated (MILLIPORE QGARDOOR1, Millipore, Zug, Switzerland), Bovine serum albumine (BSA; Sigma Aldrich, Buchs, Switzerland Cat. No. A8412), SureFire p-Akt ½ (Ser473) Assay Kit (PerkinElmer, Schwerzenbach, Switzerland, Cat. No. TGRAS50K).The p-Akt(5473) SureFire assay measures the phosphorylation of endogenous cellular Akt ½ at Ser473 in cell lysates. Using Rat-1 cells stably expressing myr-HA-tagged versions of the human PI3Kdelta, PI3Kalpha, or PI3Kbeta p110 catalytic subunit isoforms, the assay was developed as a two-plate protocol in a 384-well format. For compound testing, the cells were seeded at a density of 4000 (Rat-1_PI3Kdelta), 7500 (Rat-1_PI3Kalpha).
# [2] = as §1, with “No. 16140), MEM non essential amino acids (NEAA; Gibco Invitrogen, Basel, Switzerland, Cat. No. 11140), HEPES (Gibco Invitrogen, Basel, Switzerland, Cat. No. 15630), Penicillin/Streptomycin (Pen/Strep, 100x; Gibco Invitrogen, Basel, Switzerland, Cat. No. 15140-122), L-Glutamine (Gibco Invitrogen, Basel, Switzerland, Cat. No. 25030), Puromycin (Sigma Aldrich, Buchs, Switzerland, Cat. No. P9620), DMSO (MERCK, Dietikon, Switzerland, Cat. No. 8.02912.2500), H2O, MilliQ-H2O unless otherwise stated (MILLIPORE QGARDOOR1, Millipore, Zug, Switzerland), Bovine serum albumine (BSA; Sigma Aldrich, Buchs, Switzerland Cat. No. A8412), SureFire p-Akt ½ (Ser473) Assay Kit (PerkinElmer, Schwerzenbach, Switzerland, Cat. No. TGRAS50K).The p-Akt(5473) SureFire assay measures the phosphorylation of endogenous cellular Akt ½ at Ser473 in cell lysates. Using Rat-1 cells stably expressing myr-HA-tagged versions of the human PI3Kdelta, PI3Kalpha, or PI3Kbeta p110 catalytic subunit isoforms, the assay was developed as a two-plate protocol in a 384-well format. For compound testing, the cells were seeded at a density of 4000 (Rat-1_PI3Kdelta), 7500 (Rat-1_PI3Kalpha).” left out
Compound,IC50 [1],IC50 [2]
Nc1ncc(-c2cc(N3CCOCC3)nc(N3CCOCC3)n2)c(C(F)(F)F)n1,156 nM,139 nM
Nc1ncc(-c2cc(N3CCOC(c4ccccc4)C3)nc(N3CCOCC3)n2)c(C(F)(F)F)n1 (stereo unspecified),> 10000 nM,
Nc1ncc(-c2cc(N3CCC(=O)CC3)nc(N3CCOCC3)n2)c(C(F)(F)F)n1,5310 nM,6540 nM
Nc1ncc(-c2cc(N3C(=O)O[C@@H](c4ccc(OCCO)cc4)[C@@H]3CO)nc(N3CCOCC3)n2)c(C(F)(F)F)n1,< 3 nM,< 3 nM
Nc1ncc(-c2cc(N3CCCCC3=O)nc(N3CCOCC3)n2)c(C(F)(F)F)n1,1540 nM,1040 nM
Nc1ncc(-c2cc(N3CCN(c4ccccc4)C3=O)nc(N3CCOCC3)n2)c(C(F)(F)F)n1,1580 nM,1470 nM
